Series [1] deals with GAS5. The series can be described thus: screen of γ-AApeptide one-bead-one-compound combinatorial library with fluorescein tagged GAS5 oligonucleotide probe and validation. The conditions noted are these: positive beads from screen of 160,000 molecules, tRNA as control. Type of series: binding. The source says: The interaction between UPF1 and GAS5 was disrupted using a γ-AApeptide based one-bead-one-compound (OBOC) combinatorial library (Wu H, Li Y, Bai G, Niu Y, Qiao Q, Tipton J D, Cao C, Cai J. gamma-AApeptide-based small-molecule ligands that inhibit Abeta aggregation. Chemical communications. 2014; 50(40):5206-8. doi: 10.1039/c3cc46685j. PubMed PMID: 24158240). The γ-AApeptide is a peptidomimetic with side chains for chemical diversity and are resistant to proteolytic cleavage. To screen the compound library, a probe that contained a fluorescein tagged oligonucleotide was synthesized. The probe spanned 30 nucleotides on either side of the UAA sequences on GAS5 (FIG. 2) The fluorescein was attached to the 5′end (beginning of oligonucleotide probe sequence). The nucleotide sequence within the GAS5 IncRNA that the oligonucleotide probe binds to can be about 100% identical to […] […]
The length of oligonucleotide was required to maintain stem loop structure to specifically bind to GAS5. […] The compound having a structure according to Formula 3 was determined to have a chemical formula of C68H92N10O9S, a mass of about 1224.6769, and a molecular weight of 1225.6050. The compound having a structure according to Formula 14 was determined to have a chemical formula of C63H85N9O13S, a mass of about 1207.5988, and a molecular weight of 1208.4830.

Series [2] relates to GAS5. The series can be described thus: GAS5 levels in DM adipocytes by SYBR Green qPCR. Type of series: cell-based. The conditions noted are these: 20 nM, about 24 hours. The method, then:
Strategy for compound design: GAS5 transcript may be targeted to faster turnover by nonsense mediated RNA decay. GAS5 transcript has a premature termination codon which renders greater susceptibility for nonsense mediated RNA decay. […] GAS5 and UPF1 levels were measured in NDM and DM adipocytes.
DM adipocytes were treated with G5-1397 (20 nM) for about 24 hours. GAS5 levels were measured using SYBR Green qPCR.

The test system of a further series is DM adipocytes. The series can be described thus: cell viability assay after treatment with compound. Type of series: cell-based. The conditions noted are these: DM adipocytes treated with compound, cell viability assay (FIG. 3B).
A further series has as its system GAS5 transcript. The series can be described thus: RNA-EMSA (REMSA) with biotin-labeled in vitro transcribed GAS5. Type of series: binding. The conditions noted are these: 0.1 nM biotin-labeled GAS5, 10 nM compound, 10U yeast tRNA, 20 min at room temperature. The protocol: RNA-EMSA was performed as previously described (see e.g. Apostolatos, H., Apostolatos, A., Vickers, T., Watson, J. E., Song, S., Vale, F., Cooper, D. R., Sanchez-Ramos, J., and Patel, N. A. (2010) Vitamin A metabolite, all-trans-retinoic acid, mediates alternative splicing of protein kinase C deltaVIII (PKCdeltaVIII) isoform via splicing factor SC35. J Biol Chem 285, 25987-25995 and Patel, R. S., Carter, G., Cooper, D. R., Apostolatos, H., and Patel, N. A. (2014) Transformer 2beta homolog (Drosophila) (TRA2B) regulates protein kinase C deltal (PKCdeltal) splice variant expression during 3T3L1 preadipocyte cell cycle. J Biol Chem 289, 31662-31672.
Briefly, GAS5 was cloned in TOPO vector which has the T7 promoter. In vitro transcription assay was performed with biotin-label using RiboScribe kit using T7 RNA polymerase at 37° C. for 2 h in the presence of nucleotides, RNase inhibitor, and 5× transcription buffer. 0.1 nM of transcribed, biotin-labeled GAS5 was incubated with 10 nM G5-1397 in presence of 10U yeast tRNA and 10 units of RNase inhibitor in a final volume of 10 μl of RNA shift buffer for 20 min at room temperature and detected using Biotin Chromogenic Detection kit (ThermoFisher). […] Using the same assay, compounds according to Formulas 4-19 were also observed to bind GAS5 long non-coding RNA.
In general terms: Mobility shift assays separate free from complexed probe on a gel.

The structures appear in SMILES notation. Entries after “also recorded” stand apart in the source; their conditions may differ.

On to `C[C@H]1CN(C(=O)CC2CC2)CC(=O)N[C@@H](CCC(=O)O)CN(C(=O)CCC2CCCCC2)CC(=O)N[C@@H](Cc2ccccc2)CN(CC(N)=O)C(=O)CCSCc2ccc(cc2)C(=O)N[C@@H](Cc2ccccc2)CN(C(=O)CCC(=O)O)CC(=O)N1` [Formula 14], for which the “ability to bind GAS5” value with GAS5 [1] is “able to bind GAS5”.

For the compound `CC(C)C[C@H]1CN(C(=O)CC2CC2)CC(=O)N[C@@H](CCCCN)CN(C(=O)CCc2ccccc2)CC(=O)N[C@@H](Cc2ccccc2)CN(CC(N)=O)C(=O)CCSCc2ccc(cc2)C(=O)N[C@@H](Cc2ccccc2)CN(C(=O)CC2CC2)CC(=O)N1` [Formula G5-1397], in the series with GAS5 [2], the GAS5 levels entry was “substantially increases GAS5 levels”. Moreover, the cell toxicity result in the series on DM adipocytes was “without causing cell toxicity”. Besides, in the series on GAS5 transcript, the “binding to GAS5 transcript” value is reported as “bound to GAS5 transcript; also recorded: GAS5 transcript binding”. Besides, the “ability to bind GAS5” value with GAS5 [1] is “able to bind GAS5”.

(Values after patent US11278521B2, “GAS5 binding compounds, formulations, and uses thereof” (UNIVERSITY OF SOUTH FLORIDA, priority 2015, dated 2022).)
